Structures are written as SMILES. Read-outs that look alike come from different tables or passages of the source.

In general, GI50 refers to the concentration giving 50% growth inhibition.

For experiment [1], the system named is T-Rex 293 cell line SC3 cells having increased expression of androgen receptor protein due to exposure to doxycycline. The experiment in a line: Cellular growth inhibition assay, T-Rex 293 SC3 cells with doxycycline (CellTiter-Glo, 72 hours). Particulars: T-Rex 293 SC3 cells with increased androgen receptor expression due to doxycycline (10 ng/mL). It counts as cell-based. Summed up: (§1)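 Doxycycline (10 ng/mL) was either included or omitted to toggle wild-type androgen receptor expression in SC3 cells, a T-Rex 293 clone, grown in stripped-serum, phenol red-free medium. After 72 hours with compound, viable cells were quantified by CellTiter-Glo 2.0.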

Experiment [2] has as its system T-Rex 293 cell line SC3 cells lacking increased expression of androgen receptor protein. Description: Cellular growth inhibition assay, T-Rex 293 SC3 cells without doxycycline (CellTiter-Glo, 72 hours). The format is cell-based. Particulars: T-Rex 293 cell line SC3 cells not exposed to doxycycline (lacking increased androgen receptor expression). The gist of the method:
as §1
On the technique in general: In ATP-based viability assays light output follows the ATP content of the culture.

In a further experiment the test system is VCaP cells. The experiment in a line: Cellular growth inhibition assay for VCaP cells (CellTiter-Glo, 72 hours). It counts as cell-based, human. Summed up:
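Luminescent viability signal after 72 h of compound exposure gave GI50 values by four-parameter nonlinear regression. Compounds were added in 0.5% DMSO to cells plated 24 h earlier at 5000/well in DMEM containing 10% FBS.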

Another experiment relates to T47D cells. Description: Cellular growth inhibition assay for T47D cells (CellTiter-Glo, 72 hours). Particulars: 72 hours treatment. It counts as cell-based, human. The gist of the method:
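Luminescence from CellTiter-Glo 2.0 after 72 h of compound exposure gives the viability signal. Cells grew in insulin-supplemented (0.2 units/mL) DMEM with 10% FBS and were treated one day after seeding at 0.5% DMSO. GI50 values come from four-parameter nonlinear regression.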

As to `Cc1sc2c(c1C)C(c1ccc(O[C@@H]3CC[C@@]4(CCCN(c5ccc(C(=O)N[C@H]6CC[C@H](Oc7ccc(C#N)c(Cl)c7)CC6)nn5)C4)C3)cn1)=N[C@@H](Cc1ncco1)c1nnc(C)n1-2` [I-362], the GI50 was less than 0.5 µM in experiment [1] (72 h); less than 0.5 µM in experiment [2] (72 h); less than 0.5 µM in the experiment with VCaP cells (Homo sapiens, VCaP, 72 h); less than 0.5 µM in the experiment with T47D cells (Homo sapiens, T47D, 72 h).
Consider `Cc1sc2c(c1C)C(c1ccc([C@H]3CC[C@]4(C3)CN(c3ccc(C(=O)N[C@H]5CC[C@H](Oc6ccc(C#N)c(Cl)c6)CC5)nn3)CCO4)cc1)=N[C@@H](Cc1ncco1)c1nnc(C)n1-2` [I-363], for which the GI50 was greater than 3 µM in experiment [1] (72 h); greater than 3 µM in experiment [2] (72 h); greater than 3 µM in the experiment with VCaP cells (Homo sapiens, VCaP, 72 h); greater than 3 µM in the experiment with T47D cells (Homo sapiens, T47D, 72 h).
Take `Cc1sc2c(c1C)C(c1ccc([C@H]3CC[C@@]4(C3)CN(c3ccc(C(=O)N[C@H]5CC[C@H](Oc6ccc(C#N)c(Cl)c6)CC5)nn3)CCO4)cc1)=N[C@@H](Cc1ncco1)c1nnc(C)n1-2` [I-364]: the GI50 in experiment [1] (72 h) was less than 0.5 µM; in experiment [2] (72 h), greater than 3 µM; in the experiment on VCaP cells (Homo sapiens, VCaP, 72 h), less than 0.5 µM; with T47D cells (Homo sapiens, T47D, 72 h), less than 0.5 µM.
`Cc1sc2c(c1C)C(c1ccc(CC3CCC4(CC3)CCN(c3ccc(C(=O)N[C@H]5CC[C@H](Oc6ccc(C#N)c(Cl)c6)CC5)nn3)CC4)cc1)=N[C@@H](Cc1ncco1)c1nnc(C)n1-2` [I-365]: the GI50 in experiment [1] is less than 0.5 µM; in experiment [2], 0.5 to 1.5 µM; in the experiment with VCaP cells, less than 0.5 µM; in the experiment on T47D cells, less than 0.5 µM.
Take `Cc1sc2c(c1C)C(c1ccc(CN3CCC4(CC3)CCN(c3ccc(C(=O)N[C@H]5CC[C@H](Oc6ccc(C#N)c(Cl)c6)CC5)nn3)CC4)cc1)=N[C@@H](Cc1ncco1)c1nnc(C)n1-2` [I-366]: the concentration for 50% growth inhibition (GI50) in experiment [1] (72 h) is less than 0.5 µM; in experiment [2] (72 h), less than 0.5 µM; in the experiment on VCaP cells (Homo sapiens, VCaP, 72 h), less than 0.5 µM; with T47D cells (Homo sapiens, T47D, 72 h) it was less than 0.5 µM.
Regarding `Cc1sc2c(c1C)C(c1ccc(N3CCC4(CCCN(c5ccc(C(=O)N[C@H]6CC[C@H](Oc7ccc(C#N)c(Cl)c7)CC6)nn5)C4)CC3)cc1)=N[C@@H](Cc1ncco1)c1nnc(C)n1-2` [I-367], the 50% growth inhibitory concentration (GI50) is less than 0.5 µM in experiment [1] (72 h); less than 0.5 µM in experiment [2] (72 h); less than 0.5 µM in the experiment on VCaP cells (Homo sapiens, VCaP, 72 h); less than 0.5 µM in the experiment with T47D cells (Homo sapiens, T47D, 72 h).
For the compound `Cc1sc2c(c1C)C(c1ccc(N3CCC4(CC3)CCN(c3ccc(C(=O)N[C@H]5CC[C@H](Oc6ccc(C#N)c(Cl)c6)CC5)nn3)C4)cc1)=N[C@@H](Cc1ncco1)c1nnc(C)n1-2` [I-368], the GI50 in experiment [1] (72 h) is less than 0.5 µM; in experiment [2] (72 h), less than 0.5 µM; in the experiment on VCaP cells (Homo sapiens, VCaP, 72 h), less than 0.5 µM; in the experiment with T47D cells (Homo sapiens, T47D, 72 h) it was less than 0.5 µM.
As to `Cc1sc2c(c1C)C(c1ccc(-c3ccc(C4CCN(c5ccc(C(=O)NC6CCC(Oc7ccc(C#N)c(Cl)c7)CC6)nn5)CC4)cc3)cc1)=N[C@@H](Cc1ncco1)c1nnc(C)n1-2` (stereo partly drawn) [I-369], the GI50 in experiment [1] (72 h) is greater than 3 µM; in experiment [2] (72 h), greater than 3 µM; in the experiment with VCaP cells (Homo sapiens, VCaP, 72 h), less than 0.5 µM; in the experiment on T47D cells (Homo sapiens, T47D, 72 h) it was greater than 3 µM.
As to `Cc1sc2c(c1C)C(c1ccc(-c3ccc(C4CCN(c5ccc(C(=O)NC6CCC(Oc7ccc(C#N)c(Cl)c7)CC6)nn5)CC4)cc3)cc1)=N[C@H](Cc1ncco1)c1nnc(C)n1-2` (stereo partly drawn) [I-370], the GI50 in experiment [1] (72 h) was less than 0.5 µM; in experiment [2] (72 h), greater than 3 µM; in the experiment with VCaP cells (Homo sapiens, VCaP, 72 h), greater than 3 µM; in the experiment on T47D cells (Homo sapiens, T47D, 72 h), 0.5 to 1.5 µM.
Take `Cc1sc2c(c1C)C(c1ccc([C@H]3C[C@@H](C4CCN(c5ccc(C(=O)N[C@H]6CC[C@H](Oc7ccc(C#N)c(Cl)c7)CC6)nn5)CC4)C3)cc1)=N[C@@H](Cc1ncco1)c1nnc(C)n1-2` [I-371]: the GI50 in experiment [1] (72 h) is greater than 3 µM; in experiment [2] (72 h), greater than 3 µM; in the experiment on VCaP cells (Homo sapiens, VCaP, 72 h) it was greater than 3 µM; in the experiment on T47D cells (Homo sapiens, T47D, 72 h) it was greater than 3 µM.
Turning to `Cc1sc2c(c1C)C(c1ccc([C@H]3C[C@@H](C4CCN(c5ccc(C(=O)N[C@H]6CC[C@H](Oc7ccc(C#N)c(Cl)c7)CC6)nn5)CC4)C3)cc1)=N[C@H](Cc1ncco1)c1nnc(C)n1-2` [I-372], the GI50 in experiment [1] (72 h) is less than 0.5 µM; in experiment [2] (72 h) it was less than 0.5 µM; in the experiment on VCaP cells (Homo sapiens, VCaP, 72 h) it was less than 0.5 µM; in the experiment on T47D cells (Homo sapiens, T47D, 72 h), less than 0.5 µM.
With `Cc1sc2c(c1C)C(c1ccc([C@H]3C[C@H](C4CCN(c5ccc(C(=O)N[C@H]6CC[C@H](Oc7ccc(C#N)c(Cl)c7)CC6)nn5)CC4)C3)cc1)=N[C@@H](Cc1ncco1)c1nnc(C)n1-2` [I-373], the GI50 in experiment [1] (72 h) is less than 0.5 µM; in experiment [2] (72 h) it was greater than 3 µM; in the experiment with VCaP cells (Homo sapiens, VCaP, 72 h), less than 0.5 µM; with T47D cells (Homo sapiens, T47D, 72 h), less than 0.5 µM.

For the origin of these results see patent US20260109707A1, “HETEROBIFUNCTIONAL COMPOUNDS AND METHODS OF TREATING DISEASE” (Halda Therapeutics OpCo. Inc., priority 2022, published 2026).
